Legend:
Amaranthus retroflexus = assay: Post-emergence treatment test in a farmland (foliar spray, greenhouse pots); format: in vivo; conditions: application rate 4 kg/ha, sprayed at two-leaf stage, visually evaluated nine days after spraying, 11 stages from 0 (no effect) to 10 (complete kill)
Protocol: Nursery soil was put in a plastic pot measuring 8 cm in diameter and 6.5 cm in height, and in the pot, seeds of Amaranthus retroflexus were sown, and then covered with soil of about 0.5 cm thickness, and the plants were grown in a greenhouse. When the Amaranthus retroflexus plants were grown to two-leaf stage, a diluted solution containing either the present compound or a compound represented by formula (B) below (which is described in European Patent No. 1122244 B2) (hereinafter, referred to as Compound B) was uniformly sprayed on the whole Amaranthus retroflexus plants so that the application rates of the chemicals would be values indicated in Table 1.
Here the diluted solution was prepared by dissolving the present compound or the compound B in dimethylformamide solution containing 2% of Tween 20 (polyoxyethylene sorbitan fatty acid ester) (manufactured by MP Biomedicals Inc.) and then diluting the solution with deionized water.
The Amaranthus retroflexus plants that were sprayed with the diluted solution containing the present compound or the compound B were grown in a greenhouse. Nine days after spraying, the efficacy for controlling Amaranthus retroflexus plants was observed, thereby examining a herbicidal effect. Here the herbicidal effect was visually observed and evaluated by classifying the effect into 11 stages from 0 (no effect) to 10 (complete kill).

Arabidopsis thaliana = assay: Inhibitory activity on emergence of Arabidopsis thaliana (24 well plate, filter paper); format: in vivo; conditions: treatment concentration 8000 ppm, visually evaluated seven days after sowing, indices 0 (no effect) to 100 (no emergence)
Protocol: Inhibitory Activity on Emergence of Arabidopsis thaliana
Each well of 24 well microtiter plates was matted with a filter paper, and to the filter paper was added dropwise the solution in which the present compound or the compound B was dissolved in acetone. After air-drying, distilled water was added to each well so that the concentration of the present compound or the compound B in each well would be 8000 ppm. Next, seeds of Arabidopsis thaliana were sown into each well containing the present compound or the compound B, followed by putting a lid on each well, and cultivating Arabidopsis thaliana under the condition that a cultivation at 25° C. under lighting for 16 hours and a successive cultivation at 25° C. under dark for 8 hours were repeated. Seven days after sowing, the inhibitory activity on emergence of Arabidopsis thaliana was visually evaluated by classifying the activity into 0 to 100 indices (0: no effect to 100: no emergence).

For `CCOC(=O)COc1ncccc1Oc1cc(NC(=O)NC(C)=O)c(F)cc1Cl` [Present compound], the “Herbicidal Effect” value (Amaranthus retroflexus) was 8, the “Herbicidal Effect” value (Amaranthus retroflexus; listed as present compound) was “higher herbicidal effect compared to the compound B” and the “Inhibitory Activity on Emergence” value (Arabidopsis thaliana) was 80. The “Inhibitory Activity on Emergence” value (Arabidopsis thaliana; listed as present compound) was “higher inhibitory activity compared to the compound B”.

For `CCOC(=O)COc1ncccc1Oc1cc(NC(C)=O)c(F)cc1Cl` [Compound B, N-[4-chloro-2-fluoro-5-{2-(ethoxycarbonyl)methoxy-3-pyridyloxy}phenyl]acetamide, reference compound], the “Herbicidal Effect” value (Amaranthus retroflexus) was 1 and the “Inhibitory Activity on Emergence” value (Arabidopsis thaliana) was 30.
